Laboratory results published in patent publication US9588106B2, “Methods and compositions for measuring cell permeability” (The University of Chicago, priority 2012, dated 2017).

Test system: HPAEC monolayer
Experiment: XPerT permeability visualization on biotinylated gelatin coated coverslips (FITC-avidin, VE-cadherin staining)
Format: cell-based, human
Settings: thrombin 0.2 or 0.3 U/ml 15 min; forskolin 2 μM 30 min; 10× objective; FIG. 4A
Description: Human pulmonary artery endothelial cells (HPAEC) were obtained from Lonza (Allendale, N.J.) and cultured in cell growth medium (EGM-2, Lonza) containing 10% fetal bovine serum (FBS). Cell cultures were maintained at 37° C. in a humidified 5% CO2 incubator and used for experiments at passages 5-8. In experiments with agonist stimulation, 10% FBS growth medium was replaced with 2% FBS growth medium for 2 hours prior to experiment. Measurements of transendothelial electrical resistance across a confluent endothelial cell monolayer were performed using the electrical cell-substrate impedance sensing system ECIS-1600 (Applied Biophysics, Troy, N.Y.). Transient transfections with cMyc-tagged RhoA-V14 or Rho kinase-CAT (6-553) were performed using PolyJet transfection reagent (SignaGen, Rockville, Md.) according to the manufacturer's protocol. In brief, HPAEC were seeded on 35 mm diameter cell culture dishes with biotinylated gelatin-treated coverslips at a density of 5×10^5 cells per dish. After 24 hours cells were transfected with 1 μg of plasmid DNA per dish (ratio: 1 μg of DNA per 3 μl of PolyJet). Permeability visualization experiments were performed 24 hours after transfection.
Permeability visualization experiments were performed on 18×18 mm square Rinzle plastic coverslips. The coverslips, placed in 35 mm culture dishes, were coated with biotinylated gelatin as described above. […]

thrombin
FITC fluorescence at cell-cell junction areas, low magnification images: dramatic increase in FITC fluorescence in the intercellular gaps
